Laboratory results published in US20130331405A1, “PIK3CA Mutation Status and SASH1 Expression Predicts Synergy Between Lapatinib and an AKT Inhibitor in HER2 Positive Breast Cancer” (THE REGENTS OF THE UNIVERSITY OF CALIFORNIA, priority 2012, published 2013).

Legend:
[1] = test system: HCC202; assay: Growth inhibition (CTG assay), HCC202; format: cell-based; details: Homo sapiens, PIK3CA p.E545K, average GI50, CTG assay
Experimental: (§1) We used a panel of breast cancer cell lines that represent the heterogeneity seen in breast tumors for drug screening. Fixed numbers of cells were plated in 96 well plates. Using a Biotek liquid handling robot, cells were treated with nine two-fold dilutions of an AKT inhibitor (GSK690693), a second drug (lapatinib), or a combination of the two. Response was measured using CTG assay as % Growth Inhibition. 50% Growth Inhibition (GI50) was calculated. Synergistic interactions between drugs was calculated by standard median-effect method using % inhibition (inhibitory concentration) readings and reported as a combination index using the Synergy module in R.

[2] = test system: AU565; assay: Growth inhibition (CTG assay), AU565; format: cell-based; details: Homo sapiens, PIK3CA wt, PTEN wt, average GI50, CTG assay
Experimental: as §1

[3] = test system: MDAMB361; assay: Growth inhibition (CTG assay), MDAMB361; format: cell-based; details: Homo sapiens, MDA-MB-361, PIK3CA wt/p.E545K, average GI50, CTG assay
Experimental: as §1

[4] = test system: UACC812; assay: Growth inhibition (CTG assay), UACC812; format: cell-based; details: Homo sapiens, UACC-812, PIK3CA wt, PTEN wt, average GI50, CTG assay
Experimental: as §1

[5] = test system: MDAMB175; assay: Growth inhibition (CTG assay), MDAMB175; format: cell-based; details: Homo sapiens, PIK3CA wt, PTEN wt, not HER2 amplified, average GI50, CTG assay
Experimental: as §1

[6] = test system: BT474; assay: Growth inhibition (CTG assay), BT474; format: cell-based; details: Homo sapiens, BT-474, PIK3CA wt/p.K111N, average GI50, CTG assay
Experimental: as §1, with “50% Growth Inhibition (GI50) was calculated.” left out

[7] = test system: SKBR3; assay: Growth inhibition (CTG assay), SKBR3; format: cell-based; details: Homo sapiens, SK-BR-3, PIK3CA wt, PTEN wt, average GI50, CTG assay
Experimental: as §1

[8] = test system: SUM225; assay: Growth inhibition (CTG assay), SUM225; format: cell-based; details: Homo sapiens, PIK3CA wt, average GI50, CTG assay
Experimental: as §1

[9] = test system: HCC1569; assay: Growth inhibition (CTG assay), HCC1569; format: cell-based; details: Homo sapiens, PIK3CA wt, PTEN p.K267fs*9, average GI50, CTG assay
Experimental: as §1

[10] = test system: HCC1954; assay: Growth inhibition (CTG assay), HCC1954; format: cell-based; details: Homo sapiens, PIK3CA p.H1047R, average GI50, CTG assay
Experimental: as §1

[11] = test system: SUM190PT; assay: Growth inhibition (CTG assay), SUM190PT; format: cell-based; details: Homo sapiens, PIK3CA p.H1047R, average GI50, CTG assay
Experimental: as §1

[12] = test system: MDAMB453; assay: Growth inhibition (CTG assay), MDAMB453; format: cell-based; details: Homo sapiens, MDA-MB-453, PIK3CA p.H1047R, PTEN wt/p.E307K, average GI50, CTG assay
Experimental: as §1

[13] = test system: Akt; details: ATP-competitive; three Akt isoforms; cited from earlier work

| GI50 [1] [nM] | GI50 [3] [nM] | GI50 [5] [nM] | GI50 [6] [nM] | GI50 [7] [nM] | GI50 [9] [nM] | GI50 [10] [nM] | GI50 [12] [nM] | Compound | GI50 [2] [nM] | GI50 [4] [nM] | GI50 [8] [nM] | GI50 [11] [nM] | pan-Akt kinase inhibition potency [13] |
| --- | --- | --- | --- | --- | --- | --- | --- | --- | --- | --- | --- | --- | --- |
| 15 | 63 | 27 | 89 | 54 | 122 | 119 | 109 | CCn1c(-c2nonc2N)nc2c(C#CC(C)(C)O)ncc(OC[C@H]3CCCNC3)c21 [AKT] | 109 | 41 | 293 | 229 | low-nanomolar |
| 68 | 106 | 114 | 116 | 163 | 420 | 673 | 922 | CS(=O)(=O)CCNCc1ccc(-c2ccc3ncnc(Nc4ccc(OCc5cccc(F)c5)c(Cl)c4)c3c2)o1 [Lap, lapatinib] | 87 | 106 | 245 | 806 | – |
